From patent publication US20120020958A1, “FIBCD1 FOR THE PREVENTION AND TREATMENT OF DISEASES” (Dansk Universitet, priority 2008, published 2012)
Like-named read-outs stand apart in the source and are kept apart here.

What was measured:
[1] = target: T1, FIBCD1 (Homo sapiens, UniProt Q8N539); test: ELISA binding of FIBCD1 to coated microtiter plates; conditions: for substitution for calcium in binding to acetylated BSA: 5 mM MnCl2 or 5 mM MgCl2 instead of CaCl2; for binding of FIBCD1 to coated substance: ELISA, microtiter plates coated with the substance
T1 construct: The V5-His tagged putative ectodomain of FIBCD1, encoding amino acid 54-461, was generated by PCR; made in house; host or cells: HEK293 (Flp-In T-REx), secreted via pSecTag/FRT/V5-His TOPO vector
T1 sequence (Q8N539 54-461): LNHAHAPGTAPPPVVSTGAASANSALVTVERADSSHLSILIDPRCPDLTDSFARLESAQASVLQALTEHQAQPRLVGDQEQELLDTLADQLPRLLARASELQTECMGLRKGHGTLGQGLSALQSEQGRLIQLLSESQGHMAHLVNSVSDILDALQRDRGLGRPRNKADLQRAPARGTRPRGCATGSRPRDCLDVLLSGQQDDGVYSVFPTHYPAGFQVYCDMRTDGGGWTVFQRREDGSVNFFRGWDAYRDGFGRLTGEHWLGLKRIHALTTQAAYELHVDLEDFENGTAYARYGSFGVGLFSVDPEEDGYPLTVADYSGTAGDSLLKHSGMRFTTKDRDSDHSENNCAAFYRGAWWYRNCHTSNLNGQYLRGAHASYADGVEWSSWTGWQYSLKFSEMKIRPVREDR
Protocol: (A) SDS-PAGE and Western blotting analysis of culture supernatant from HEK293 cells expression FIBCD1 in the non-reduced (lane 1) and reduced (lane 2) state developed with the monoclonal rat anti-FIBCD1 (HG-HYB-12-2). […] (D) Silver stained SDS-PAGE of fractions from (E) in the reduced and unreduced state. (E) Microtiterplates were coated with BSA or NAc-BSA and increasing amounts of FIBCD1 was added in the presence 5 mM CaCl2 or 10 mM EDTA. (F) Microtiterplates were coated with NAc-BSA and 100 ng/ml and FIBCD1 was added in the presence 0-1 mM CaCl2. (G) Microtiterplates were coated with NAc-BSA and increasing amounts of FIBCD1 was added in the presence 5 mM CaCl2, 5 mM MgCl2 or 5 mM MnCl2.
(§1) (A) Microtiter plates were coated with LPS 055, LPS 0111 LPS 026 or NAc-BSA. (B) Microtiterplates were coated with LTA, mannan, peptidoglycan or NAc-BSA and increasing concentrations of FIBCD1 was added. (C) Pull-down assays where 20 μg of the FIBCD1 (the FReD of FIBCD1) or as a positive control 20 μg of wheat germ agglutinin (WGA) was added to 2 mg insoluble chitin, cellulose, zymozane or beta-glucan. […] BSA was used as control. Pellet fractions were analyzed by SDS-PAGE and Coomassie blue staining.
(§2) An ELISA system was used to evaluate the ability of various acetylated and nonacetylated compounds to inhibit the binding between FIBCD1 ectodomain and acetylated BSA (Sigma). Microtiter plates (NUNC Maxisorp, Denmark) were coated with acetylated BSA (Sigma) or BSA (Sigma) and blocked with TBS/Tw before being incubated with FIBCD1 ectodomain samples diluted in TBS/Tw (5 mM CaCl2). The binding between FIBCD1 and acetylated BSA was also tested in the presence of 10 mM EDTA, 5 mM MnCl2 or 5 mM MgCl2 instead of CaCl2. After incubation overnight at 4° C. and washing, the wells were incubated for 2 h at room temperature with chicken anti-FIBCD1 antibodies diluted 1:1000 in TBS/Tw (5 mM CaCl2). The plates were washed with TBS/Tw (5 mM CaCl2) and incubated for 1 h with alcalic phosphatase-labelled anti-chicken IgY (whole molecule) (Sigma-Aldrich) diluted 1:1500 in TBS/Tw (5 mM CaCl2) followed by washing and developed with 1 mg/ml para-nitrophenylphosphate, disodium salt (PNPP) (Boehringer Mannheim, Germany) in substrate buffer.

[2] = target: T2, FIBCD1 ectodomain (Homo sapiens, UniProt Q8N539); test: ELISA inhibition of binding between FIBCD1 ectodomain and acetylated BSA; conditions: for IC50: read-out: I50 of the binding between FIBCD1 and acetylated BSA; for I50 relative (relative inhibitor potential): I50 of the best inhibitor divided by I50 of the compound; for inhibition of binding of FIBCD1 to acetylated BSA: at a concentration of 50 mM
T2 construct: The V5-His tagged putative ectodomain of FIBCD1, encoding amino acid 54-461, was generated by PCR; made in house; host or cells: HEK293 (Flp-In T-REx), secreted via pSecTag/FRT/V5-His TOPO vector
T2 sequence (Q8N539 54-461): T1 sequence (Q8N539 54-461)
Protocol: The ligand selectivity of FIBCD1 was investigated by inhibiting the binding of FIBCD1 ectodomain to acetylated BSA coated microtiter plates (FIG. 2G, Table 1).
as §2
The mixtures were incubated overnight in the acetylated BSA coated wells overnight at 4° C. and processed as described above.

[3] = test system: CHO cells transfected with FIBCD1 cDNA; test: FIBCD1-mediated endocytosis of acetylated BSA in CHO cells; format: cell-based, Chinese hamster; conditions: for uptake and degradation of 125I labelled acetylated BSA: GlcNAc at 10 mM
Protocol: Degradation was measured, as the cell-mediated increase in of TCA-soluble radioactivity in the growth medium and cell-associated was determined by counting the radioactivity of the cell lysate. (A) CHO cells and (B) CHO/FIBCD1 cells. (C) Effect of lysosomal inhibitors chloroquine and leupeptin (both 100 μM) on endocytosis of NAc-BSA. Values are mean+/−1 SD of triplicate samples. […] Fluorescence microscopy of CHO-FReD (E) and CHO (F) after incubation with Alexa488 acetylated BSA.

[4] = target: T3, FIBCD1 (the FReD of FIBCD1) (Homo sapiens, UniProt Q8N539); test: Pull-down assay of FIBCD1 (FReD) with insoluble polysaccharides; format: binding; conditions: 20 μg FIBCD1 FReD, 2 mg insoluble substance
T3 construct: 20 μg of the FIBCD1 (the FReD of FIBCD1)
T3 sequence (Q8N539 235-458 limits assumed): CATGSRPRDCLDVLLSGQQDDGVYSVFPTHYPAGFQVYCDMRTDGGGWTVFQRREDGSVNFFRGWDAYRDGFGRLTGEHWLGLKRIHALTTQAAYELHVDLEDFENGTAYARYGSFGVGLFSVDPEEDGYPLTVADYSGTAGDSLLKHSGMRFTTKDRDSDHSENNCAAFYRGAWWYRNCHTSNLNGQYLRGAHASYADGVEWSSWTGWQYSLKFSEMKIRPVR
Protocol: as §1, with “(B)” for “(A) Microtiter plates were coated with LPS 055, LPS 0111 LPS 026 or NAc-BSA. (B)”

[5] = 100 ng/ml FIBCD1 ectodomain, 5 mM CaCl2, N.I. = less than 50% inhibition at 50 mM

## [Mn+2] [manganese]
[1]
  substitution for calcium in binding to acetylated BSA: could substitute for calcium

## lipopolysaccharide [LPS]
[1]
  binding of FIBCD1 to coated substance: no binding

## N[C@@H]1C(O)O[C@H](CO)[C@@H](O)[C@@H]1O (some centres unmarked) [Mannosamine, mannosamine, reference compound]
[2]; [5]
  I50 of the binding between FIBCD1 and acetylated BSA: N.I.

## ^125I-labeled NAc-BSA: acetylated BSA labelled with 125I using the chloroamine-T method
[3]; CHO/FIBCD1 cells, 37° C.
  time at which cell-associated radioactivity reached a plateau: one
[3]
  uptake in non-transfected CHO cells: no uptake

## cellulose
[4]
  binding of FIBCD1 in pull-down: no binding

## CC(=O)N[C@@H]1[C@@H](O)[C@@H](O)[C@@H](CO)O[C@@H]1O [N-acetylgalactoseamine]
[2]; [5]
  IC50: 5 mM
[2]
  I50 relative (relative inhibitor potential): 0.4

## O=C[C@H](O)[C@@H](O)[C@@H](O)[C@H](O)CO [Galactose, galactose, reference compound]
[2]; [5]
  I50 of the binding between FIBCD1 and acetylated BSA: N.I.

## β-1,3-glucan
[4]
  binding of FIBCD1 in pull-down: no binding

## C[C@H](N)C(=O)O [Alanine, L-alanine, reference compound]
[2]; [5]
  I50 of the binding between FIBCD1 and acetylated BSA: N.I.

## N[C@H]1C(O)O[C@H](CO)[C@@H](O)[C@@H]1O (some centres unmarked) [Glucosamine, glucosamine, reference compound]
[2]; [5]
  I50 of the binding between FIBCD1 and acetylated BSA: N.I.

## Alexa488 labelled acetylated BSA: acetylated BSA coupled with Alexa Fluor 488 C5 maleimide
[3]; fluorescence microscopy
  uptake in CHO cells transfected with FIBCD1 cDNA: mediate uptake
[3]
  uptake in non-transfected CHO cells: no uptake

## CC(=O)N[C@H]1[C@H]([C@H](O)[C@H](O)CO)OC(O)(C(=O)O)C[C@@H]1O (some centres unmarked) [Sialic acid, N-acetylneuraminic acid]
[2]
  I50 relative (relative inhibitor potential): 1
  IC50: 2 mM

## lipoteichoid acid [LTA]
[1]
  binding of FIBCD1 to coated substance: no binding

## peptidoglycan
[1]
  binding of FIBCD1 to coated substance: no binding

## CC(=O)N[C@@H](C)C(=O)O [N-acetylalanine]
[2]
  I50 relative (relative inhibitor potential): 0.5
  IC50: 4 mM

## CC(=O)N[C@@H]1C(O)O[C@H](CO)[C@@H](O)[C@@H]1O (some centres unmarked) [N-acetylmannoseamine, N-acetyl mannosamine]
[2]
  I50 relative (relative inhibitor potential): 1
  IC50: 2 mM

## zymosan
[4]
  binding of FIBCD1 in pull-down: no binding

## [Ca+2].[Cl-].[Cl-] [calcium, calcium chloride]
[1]; 100 ng/ml FIBCD1, 0-1 mM CaCl2
  calcium concentration for optimum binding to acetylated BSA: 0.6 mM

## CCCC(=O)[O-].[Na+] [Butyrate, sodium butyrate, reference compound]
[2]; [5]
  I50 of the binding between FIBCD1 and acetylated BSA: N.I.
[2]
  inhibition of binding of FIBCD1 to acetylated BSA: did not inhibit

## CC(=O)OCC[N+](C)(C)C [Acetylcholine, acetyl cholin]
[2]
  IC50: 10 mM

## CC(=O)N[C@H]1C(O)O[C@H](CO)[C@@H](O)[C@@H]1O (some centres unmarked) [N-acetylglucosamine, N-acetyl glucosamine]
[3]; CHO/FIBCD1 cells
  uptake and degradation of 125I labelled acetylated BSA: inhibited
[2]
  I50 relative (relative inhibitor potential): 0.5
  IC50: 4 mM

## N[C@H]1C(O)O[C@H](CO)[C@H](O)[C@@H]1O (some centres unmarked) [Galactoseamin, galactosamine, reference compound]
[2]; [5]
  I50 of the binding between FIBCD1 and acetylated BSA: N.I.

## N-acetyl bovine serum albumin [NAc-BSA]
[1]
  binding of FIBCD1 to coated substance: binding
[1]; listed as acetylated BSA
  binding of FIBCD1 to coated substance: bound
[3]; CHO/FIBCD1 cells
  uptake and degradation of 125I labelled acetylated BSA: inhibited

## mannan
[1]
  binding of FIBCD1 to coated substance: no binding

## [Mg] [magnesium]
[1]
  substitution for calcium in binding to acetylated BSA: could not

## CCC(=O)[O-].[Na+] [Propionate, sodium propionate, reference compound]
[2]; [5]
  I50 of the binding between FIBCD1 and acetylated BSA: N.I.
[2]
  inhibition of binding of FIBCD1 to acetylated BSA: did not inhibit
